Experimental data published in patent publication US4983608A, “N-substituted-4-pyrimidinamines and pyrimidinediamines” (Hoechst-Roussell Pharmaceuticals, Inc., priority 1989, dated 1991).

Tested on: phenyl-para-quinone writhing
Assay: phenyl-para-quinone writhing assay in mice (analgesia)
Format: in vivo
Conditions: Mus musculus, sc, 20 mg/kg s.c., read-out: Analgesic Activity % Inhibition of Writhing at a Screening Dose of 20 mg/kg s.c.
Protocol: Exptl. Biol. Med., 95, 729 (1957)]. Presented in Table I is the analgesic effect of some of the compounds of the invention, expressed as the percent decrease in writhing at a given dose (20 mg/kg s.c.).

Point of comparison: `c1ccn(Nc2ccncn2)c1` [N-(1H-pyrrol-1-yl)-4-pyrimidinamine, N-(1H-Pyrrol-1-yl)-4-pyrimidinamine], inhibition in vivo at 20 mg/kg 30%. Against it:
- CN(c1ccnc(Cl)n1)n1cccc1 [2-Chloro-N-methyl-N-(1H-pyrrol-1-yl)-4-pyrimidinamine] — higher, 38%
- N#Cc1cncnc1Nn1ccc2ccccc21 [5-Cyano-N-(1H-indol-1-yl)-4-pyrimidinamine] — higher, 44%
- CCCN(c1ncncc1C#N)n1ccc2ccccc21 [5-Cyano-N-(1H-indol-1-yl)-N-propyl-4-pyrimidinamine] — higher, 75%
- CCCN(c1cc(Cl)ncn1)n1ccc2ccccc21 [6-Chloro-N-(1H-indol-1-yl)-N-propyl-4-pyrimidinamine] — higher, 40%
- Clc1cc(Nn2cccc2)ncn1 [6-Chloro-N-(1H-pyrrol-1-yl)-4-pyrimidinamine] — higher, 39%
- Cc1cn(Nc2cc(Cl)ncn2)c2ccccc12 [6-Chloro-N-(3-methyl-1H-indol-1-yl)-4-pyrimidinamine] — higher, 45%
- CCCN(c1cc(Cl)ncn1)n1cc(C)c2ccccc21 [6-Chloro-N-(3-methyl-1H-indol-1-yl)-N-propyl-4-pyrimidinamine] — higher, 36%
- CN(c1cc(Cl)ncn1)n1cccc1 [6-Chloro-N-methyl-N-(1H-pyrrol-1-yl)-4-pyrimidinamine] — higher, 42%
- CCCN(c1cc(Cl)ncn1)n1cccc1 [6-Chloro-N-propyl-N-(1H-pyrrol-1-yl)-4-pyrimidinamine] — higher, 46%
- Cc1cn(Nc2cc(Nn3cc(C)c4ccccc43)ncn2)c2ccccc12 [N,N'-bis(3-methyl-1H-indol-1-yl)-4,6-pyrimidinediamine] — higher, 33%
- CCCN(c1ccncn1)n1ccc2ccccc21 [N-(1H-Indol-1-yl)-N-propyl-4-pyrimidinamine] — higher, 58%
- CCCN(c1ccncn1)n1cc(C)c2ccccc21 [N-(3-methyl-1H-indol-1-yl)-N-propyl-4-pyrimidinamine] — higher, 60%
- c1ccc2c(c1)c1ccccc1n2Nc1ccncn1 [N-(pyrimidin-4-yl)-9H-carbazol-9-amine, N-(Pyrimidin-4-yl)-9H-carbazol-9-amine] — higher, 65%

Tested on: Scopolamine Induced Memory Deficit
Assay: Dark Avoidance Assay (reversal of scopolamine induced memory deficit)
Format: in vivo
Conditions: mice, 1.25 mg/kg s.c. by body weight; retest after 24 hours
Protocol: The N-substituted-4-pyrimidinamines and pyrimidinediamines of the present invention are also useful in the treatment of various memory dysfunctions such as Alzheimer's disease.
In this assay, mice are tested for their ability to remember an unpleasant stimulus for a period of 24 hours. A mouse is placed in a chamber that contains a dark compartment; a strong incandescent light drives it to the dark compartment, where an electric shock is administered through metal plates on the floor. The animal is removed from the testing apparatus and tested again, 24 hours later, for the ability to remember the electric shock.
If scopolamine, an anticholinergic that is known to cause memory impairment is administered before an animal's initial exposure to the test chamber, the animal re-enters the dark compartment shortly after being placed in the test chamber 24 hours later. This effect of scopolamine is blocked by an active test compound, resulting in a greater interval before re-entry into the dark compartment.
The results for an active compound are expressed as the percent of a group of animals in which the effect of scopolamine is blocked, as manifested by an increased interval between being placed in the test chamber and re-entering the dark compartment.

Point of comparison: `Cc1cn(Nc2ccncn2)c2ccccc12` [N-(3-methyl-1H-indol-1-yl)-4-pyrimidinamine], “% of Animals with Scopolamine Induced Memory Deficit Reversed” value 20%. Against it:
- N#Cc1cncnc1Nn1ccc2ccccc21 [5-Cyano-N-(1H-indol-1-yl)-4-pyrimidinamine] — higher, 27%
- CCCN(c1cc(Cl)ncn1)n1ccc2ccccc21 [6-Chloro-N-(1H-indol-1-yl)-N-propyl-4-pyrimidinamine] — higher, 47%
- Cc1cn(Nc2cc(Cl)ncn2)c2ccccc12 [6-Chloro-N-(3-methyl-1H-indol-1-yl)-4-pyrimidinamine] — higher, 33%
- CCCN(c1ccncn1)n1ccc2ccccc21 [N-(1H-Indol-1-yl)-N-propyl-4-pyrimidinamine] — higher, 27%

Same assay, conditions: mice, 5.00 mg/kg s.c. by body weight (standard); retest after 24 hours

In the case of `CC[C@@H]1C(=O)OC[C@@H]1Cc1cncn1C` [Pilocarpine, reference compound], the “% of Animals with Scopolamine Induced Memory Deficit Reversed” value was 23%.

Tested on: phenyl-para-quinone writhing
Assay: phenyl-para-quinone writhing assay in mice (analgesia)
Format: in vivo
Conditions: 3.9 mg/kg s.c. (standard)

With `CCC(=O)O[C@](Cc1ccccc1)(c1ccccc1)[C@H](C)CN(C)C` [Propoxyphene] the “Analgesic Activity % Inhibition of Writhing” value was 50%.
